From patent US20110060268A1, “NAIL TREATMENT DEVICE” (POWER PAPER LTD., priority 2008, published 2011) come the findings set out here.

Common to all, as to assay type: in vivo, patients
For series [1], the system named is distal and lateral subungual toenail onychomycosis. In words: Clinical trial in toenail onychomycosis: healthy toenail growth. As to the method: (§1) A clinical trial was conducted to evaluate delivery of terbinafine HCl with an iontophoretic device according to an aspect of the present invention in patients with toenail onychomycosis. 38 patients suffering from distal and lateral subungual toenail onychomycosis were enrolled into the study and were divided randomly into group A (20 subjects) and group B (18 subjects). Onychomycosis was confirmed by both KOH examination and mycological culture, wherein samples were taken from the distal parts of the nail. Nail samples were divided, one part being used for direct KOH examination and the second part for fungal culture using Sabouraud's Dextrose agar (Novamed, Jerusalem, Israel). The identification of the fungus was done on the basis of morphologic characteristics. Group A was tested with 1% terbinafine HCl and an iontophoretic patch using a constant current density of 100 μA/cm^2. Group B was tested with 1% terbinafine HCl without iontophoresis. Treatment period was overnight wear, every day, five days per week, for 4 weeks. During the treatment period visits were conducted every 10 days (visits 2-4). The follow-up period was 10 weeks from the end of treatment (visit 5). At each visit nail photography and KOH examination were performed. […] Terbinafine content in affected nail samples was determined by clipping nails at visits 4 & 5. […] The eluted solution was analysed by HPLC.

Series [2] has as its system fungal elements (KOH) in nail specimens. In words: Clinical trial in toenail onychomycosis: KOH examination for fungal elements in nail specimens. As to conditions: 10 weeks following completion of treatment. As to the method:
as §1

A short description of series [3]: Terbinafine content in clipped nail samples by HPLC. As to the method:
Group A was tested with 1% terbinafine HCl and an iontophoretic patch using a constant current density of 100 μA/cm^2. Group B was tested with 1% terbinafine HCl without iontophoresis. Treatment period was overnight wear, every day, five days per week, for 4 weeks. During the treatment period visits were conducted every 10 days (visits 2-4). The follow-up period was 10 weeks from the end of treatment (visit 5). At each visit nail photography and KOH examination were performed. Routine blood test; complete blood count and liver functions tests were performed at the before study initiation, at the end of the treatment and at the end of the follow-up period. Terbinafine content in affected nail samples was determined by clipping nails at visits 4 & 5. Nails were then weighed and cut into symmetric shapes in order to estimate their area. Symmetric shapes of nails were then cut into small pieces and inserted into tubes with 0.5 ml DDW. Subsequently, methanol 0.5 ml was added and tubes were sonicated. The eluted solution was analysed by HPLC.

The nature of series [4]: Clinical trial: safety and tolerability of iontophoretic terbinafine delivery. As to conditions: terbinafine delivered into the nail with the iontophoretic device, nail onychomycosis. As to the method: as §1

Where a name gives a salt, the structure may show the parent alone.

In the case of `CN(C/C=C/C#CC(C)(C)C)Cc1cccc2ccccc12` [terbinafine, terbinafine HCl], the “percentage of patients having healthy toenail growth above 1.5 mm at the end of treatment” value in series [1] (group A: 1% terbinafine HCl with iontophoretic patch, constant current density 100 μA/cm^2, 4 weeks) amounted to 40%; in series [1] (passive group B: 1% terbinafine HCl without current, 4 weeks), 11%. The “percentage of patients having fungal elements (KOH) in nail specimens” value worked out at 15% in series [2] (active group A (iontophoretic patch, 100 μA/cm^2)) and 53% in series [2] (passive group B (without iontophoresis)). For the same compound, the Terbinafine nail content in series [3] (end of follow up period (visit 5), active group A (iontophoretic patch)) is reported as 2.41 μg/cm^2; in series [3] (end of follow up period (visit 5), passive group B (without iontophoresis)), 0.15 μg/cm^2; in series [3] (visit 4, passive group B (without iontophoresis)) it was 1.34 μg/cm^2. Moreover, the safety and tolerability entry in series [4] was “safe and well tolerated”.
